Experimental data taken from US9227955B2, “Compound having angiogenesis inhibitory activity, method for preparing same, and pharmaceutical composition comprising same” (Boryung Pharmaceutical Co., Ltd., priority 2011, dated 2016).
“Also recorded” adds a separate entry of the source. Marks after values point to notes of the source that are not given here.

Experiments:
HUVECs [1] = assay: Wound healing assay, VEGF-induced migration of HUVECs; format: cell-based, human; details: for Wound closure: 24 hrs
Method: Using a sterile, disposable cell scraper (BD Falcon, Bedford, USA), a monolayer of HUVECs was scraped, and the cells were gently washed with PBS. […] After 24 hours, the cell migration were monitored through the scraped monolayer of the cell and photographed under a microscope equipped with a camera (Canon Powershot640).
Also, Compound 250 (Example 26) was applied at various concentrations shown in Table 6 in the same manner as Compound 103, followed by monitoring and photographing the migration of the cells under the microscope. For comparison, the cells were not treated (control) or were treated with 10 ng/mL VEGF, alone.

[2] = test system: HUVECs (human umbelical vein endothelial cells); assay: Transwell assay, VEGF-induced cell migration in HUVECs; format: cell-based; details: for No. of migration cells/field: 10 ng/ml VEGF 24 hrs, n=3
Method: To examine the inhibitory effect of the compounds obtained in the Examples on VEGF (Vascular endothelial growth factor)-induced cell migration in HUVECs (human umbelical vein endothelial cells), a transwell assay was performed as follows.
HUVECs, provided from ATCC (American Type Culture Collection), were incubated in EGM-2 (Endothelial growth Medium-2 Medium) including 10% FBS, penicillin (100 unit/ml) and 100 μg/ml streptomycin sulfate plus various growth factors at 37° C. in an atmosphere of 5% CO2. After the change of the medium with growth factor-free EBM-2 (Endothelial Basal Medium-2 Medium), the cells were subjected to transwell assay.
After for 24 hours, the cells were fixed for 1 min with ethanol and were stained with a dye. Cell migration was evaluated by counting cells which moved through the pores.
In addition, cells were treated with Compound No. 250 (Example 26) at various concentrations given in Table 3, and assayed for cell migration, as conducted with Compounds 103, 110, 218, 273, 275, 276, 290, 312, 428, 442, and 509. The results were compared with those obtained after non-treatment (no treat) or treatment with 10 ng/mL VEGF.
Results were expressed as average numbers (n=3) of HUVECs which moved cross the membrane. Test results are summarized in Table 3 for compounds 103, 110, 218, 273, 275, 276, 290, 312, 428, 442, and 509, and in Table 4 for compound 250.

[3] = test system: eNOS (endothelial nitric oxide synthase); assay: VEGF-induced eNOS activation in HUVECs (Western blot); format: cell-based, human; details: HUVECs pretreated 1 hr, VEGF 10 ng/ml 1 hr, FIG. 9
Method: (§1) An examination was made to see the effect of compounds of Chemical Formula I, prepared in the Examples above, on VEGF-induced activation of AKT (serine/threonine protein kinase B)/ERK (Extracellular signal-regulated kinases) and eNOS (endothelial nitric oxide synthase) in HUVECs, as follows (endothelial nitric oxide synthase).
(§2) After 3 min of centrifugation at 4000 rpm to collect the cells, the cell pellet was washed once with PBS (phosphate buffered saline). The cell pellet suspended in a lysis buffer (50 mM HEPES pH 7.0, 250 mM NaCl, 5 mM EDTA, 0.1% Nonidet P-40, 1 mM phenylmethylsulfonyl fluoride and 0.5 mM Na orthovanadate) containing 5 μl/mL of leupeptin and aprotinin, each and the reaction was performed at 4° C. for 20 min. After the cell debris was removed by microcentrifugation, the supernatant was swiftly cooled.
(§3) Protein quantification was carried out using a Bio-Rad protein assay reagent. […]
(§4) For immunoblotting, the membrane was incubated overnight at 4° C. in a blocking solution (5% skim milk), and reacted with a primary antibody for 4 hrs. After 4 washes with Tween 20/Tris-buffered saline (TTBS), the membrane was reacted with a 1:1000 (v/v) dilution of a horseradish peroxidase-conjugated secondary antibody at room temperature for 1 hr, washed three times with TTBS, and visualized by a chemical luminescence method (Amersham Life Science).

HUVECs [4] = assay: VEGF-induced tube formation of HUVECs (capillary structure formation assay); format: cell-based, human; details: for Number of tubes/field: 4 hrs
Method: After HUVECs were seeded at a density of 3×10^5 cells/well into Matrigel-coated 48-well plates, HUVECs were with 10 ng/ml VEGF for 4 hrs. The HUVECs where tubes were formed were monitored and photographed under a microscope equipped with a camera to count cells.
HUVECs were also treated with Compound 250 (Example 26) at various concentrations given in Table 10, The HUVECs where tubes were formed were monitored and photographed under a microscope equipped with a camera, like Compound 103.

HUVECs [5] = assay: BrdU incorporation assay, VEGF-induced cell proliferation in HUVECs; format: cell-based, human
Method: A BrdU incorporation assay was carried out to examine whether the proliferation of HUVECs through VEGF-induced DNA synthesis is suppressed by BRN-103. HUVECs grown as in Experimental Example 2 were seeded at a density of 1×10^4 cells/well into 96-well plates. […] Thereafter, DNA synthesis in the cells was fluorescently measured using a BrdU incorporation assay kit (Roche).
Likewise, the cells were treated with various concentrations of Compound 250 (Example 26) given in Table 8, and then with VEGF, as the same manner of that of Compound 103. Intracellular DNA was also quantified, as the same manner of that of Compound 103. For comparison, the cells were not treated (control), or were treated with 10 ng/mL VEGF, alone.

[6] = Cell viability MTS assay (cytotoxicity); format: cell-based; details: human; A-431 cells, 48 hrs incubation; read-out: IC50, MTS assay for cytotoxicity against A-431
Method: A-431 ([…], human, ATCC CRL-1555™) cells grown in DMEM (Dulbeco's Modified Eagle's Medium, Gibco #11885) were seeded at a density of 1×10^4 cells/well into 96-well plates and incubated at 37° C. for 18 hrs under the supply of 5% CO2 until the cells stably adhered to the bottom. […] After incubation for 48 hrs in the presence of the test compound, the cells were assayed for viability.
The cells in each well was added with 21 μl of a mixture of 20:1 (v/v) of an MTS solution [(3-(4,5-dimethylthiazol-2-yl)-5-(3-carboxymethoxyphenyl)-2-(4-sulfophenyl)-2H-tetrazolium, Promega, Cat#65421; 2 mg/ml] and a PMS solution [Phenazine methosulfate, Sigma #P9625; 1 mg/ml], and incubated for 2 hrs, followed by measuring absorbance at 490 nm on a microplate reader (Molecular device, spectraMax M2). Relative to the control (media), viability by drug concentration was determined from the measurements of formazan, and the results are given in Table 2, below.

[7] = test system: AKT (serine/threonine protein kinase B); assay: VEGF-induced AKT activation in HUVECs (Western blot); format: cell-based, human; details: HUVECs pretreated 1 hr, VEGF 10 ng/ml 30 min, FIG. 9
Method: as §1, §2, §3, §4

[8] = test system: Aortic rings excised from C57BL/6 mice; assay: Ex vivo microvessel sprouting assay, mouse aortic rings; details: mouse aortic rings, 0.1, 0.5, 1 μM, 10 ng/ml VEGF 7 days, FIG. 5
Description: Sprouts from margins of the aortic rings were photographed under a microscope equipped with a camera.

[9] = test system: ERK (Extracellular signal-regulated kinases); assay: VEGF-induced ERK activation in HUVECs (Western blot); format: cell-based, human; details: HUVECs pretreated 1 hr, VEGF 10 ng/ml 10 min, FIG. 9
Method: as §1, §2, §3, §4

## O=C(Nc1cccc(Cl)c1)c1cccnc1NC1CCN(Cc2ccccc2)CC1 [Compound 103, 2-(1-Benzylpiperidin-4-ylamino)-N-(3-chlorophenyl)nicotinamide]
HUVECs [1]; VEGF + 0.1 μM
  Wound closure: 200 µm
HUVECs [1]; VEGF + 0.5 μM
  Wound closure: 180 µm
HUVECs [1]; VEGF + 1 μM
  Wound closure: 155 µm
HUVECs [1]; wound healing assay, text on Tables 5 and 6
  suppression of VEGF-induced migration of HUVECs, in words: higher efficiency than sunitinib
[2]; 0.1 μM
  No. of migration cells/field: 16*** cells/field
[2]; 0.5 μM
  No. of migration cells/field: 12*** cells/field
[2]; 1 μM
  No. of migration cells/field: 8*** cells/field
[2]; transwell assay, text on Tables 3 and 4
  suppression of VEGF-induced migration of HUVECs, in words: more suppressive than the anticancer agent sunitinib
[3]
  p-eNOS level: downregualted
HUVECs [4]; Tables 9 and 10
  suppression of VEGF-induced tube formation, in words: more efficient in the inhibition of tube formation than sunitinib; also recorded: VEGF-induced tube formation was also suppressed
HUVECs [4]; VEGF + 0.1 μM
  Number of tubes/field: 90** tubes/Field
HUVECs [4]; VEGF + 0.5 μM
  Number of tubes/field: 80*** tubes/Field
HUVECs [4]; VEGF + 1 μM
  Number of tubes/field: 60*** tubes/Field
HUVECs [5]; 1 μM, without VEGF
  BrdU incorporation: 0.7 OD 450 nm
HUVECs [5]; BrdU assay, text on Tables 7 and 8
  inhibition of VEGF-induced proliferation in HUVECs, in words: inhibited VEGF-induced proliferation in HUVECs in a dose-dependent manner
HUVECs [5]; VEGF + 0.1 μM, 24 hrs
  BrdU incorporation: 1.0*** OD 450 nm
HUVECs [5]; VEGF + 0.5 μM, 24 hrs
  BrdU incorporation: 0.8*** OD 450 nm
HUVECs [5]; VEGF + 1 μM, 24 hrs
  BrdU incorporation: 0.7*** OD 450 nm
[6]
  IC50 at 48 h: 40.6 µM
[7]
  expression of p-AKT: decreased the expression of p-AKT
[8]
  VEGF-induced aortic sprouting: inhibited VEGF-induced aortic sprouting
[9]
  expression of p-ERK: did not suppress the expression of p-ERK
